The test system of one test is pressor response to AII. Briefly: Assay C: In vivo intragastric pressor assay response for AII antagonists. Conditions: Rattus norvegicus, dose 100 mg/kg, intragastric, or intraduodenal for examples listed. Set-up: species or system rat. As to the method:
Assay C: In Vivo Intragastric Pressor Assay Response for AII Antagonists
Male Sprague-Dawley rats weighing 225-300 grams were anesthetized with methohexital (30 mg/kg, i.p.) and catheters were implanted into the femoral artery and vein. The catheters were tunneled subcutaneously to exit dorsally, posterior to the head and between the scapulae. The catheters were filled with heparin (1000 units/ml of saline). The rats were returned to their cage and allowed regular rat chow and water ad libitum. After full recovery from surgery (3-4 days), rats were placed in Lucite holders and the arterial line was connected to a pressure transducer. Arterial pressure was recorded on a Gould polygraph (mmHg). Angiotensin II was administered as a 30 ng/kg bolus via the venous catheter delivered in a 50 μl volume with a 0.2 ml saline flush. The pressor response in mm Hg was measured by the differer.-:e from pre-injection arterial pressure to the maximum pressure achieved. The AII injection was repeated every 10 minutes until three consecutive injections yielded responses within 4 mmHg of each other. These three responses were then averaged and represented the control response to AII. The test compound was suspended in 0.5% methylcellulose in water and was administered by gavage. The volume administered was 2 ml/kg body weight. The standard dose was 3 mg/kg. Angiotensin II bolus injections were given at 30, 45, 60, 75, 120, 150, and 180 minutes after gavage. The pressor response to AII was measured at each time point. The rats were then returned to their cage for future testing. A minimum of 3 days was allowed between tests. Percent inhibition was calculated for each time point following gavage by the following formula:
[(Control Response—Response at time point)/Control Response]×100.

The next test deals with rabbit aortic rings. Briefly: Assay B: In vitro vascular smooth muscle response for AII (antagonist activity, pA2). Conditions: in vitro vascular smooth muscle response, two values per cell separated by / are separate determinations; for Kb: Oryctolagus cuniculus, read-out: Assay B pA2 (converted). The class given is cell-based. The method, then: Assay B: In Vitro Vascular Smooth Muscle-response for AII
The compounds of the invention were tested for antagonist activity in rabbit aortic rings. Male New Zealand white rabbits (2-2.5 kg) were sacrificed using an overdose of pentobarbital and exsanguinated via the carotid arteries. The thoracic aorta was removed, cleaned of adherent fat and connective tissue and then cut into 3-mm ring segments. The endothelium was removed from the rings by gently sliding a rolled-up piece of filter paper into the vessel lumen. The rings were then mounted in a water-jacketed tissue bath, maintained at 37° C., between moveable and fixed ends of a stainless steel wire with the moveable end attached to an FT03 Grass transducer coupled to a Model 7D Grass Polygraph for recording isometric force responses. The bath was filled with 20 ml of oxygenated (95% oxygen/5% carbon dioxide) Krebs solution of the following composition (mM): 130 NaCl, […], 15 KCl, 1.2 NaH2PO4, 1.2 MgSO4, 2.5 CaCl2, and 11.4 glucose. The preparations were equilibrated for one hour before approximately one gram of passive tension was placed on the rings. Angiotensin II concentration-response curves were then recorded (3×10^−10 to 1×10^−5 M). Each concentration of AII was allowed to elicit its maximal contraction, and then AII was washed out repeatedly for 30 minutes before rechallenging with a higher concentration of AII. Aorta rings were exposed to the test antagonist at […] for 5 minutes before challenging with AII. Adjacent segments of the same aorta ring were used for all concentration-response curves in the presence or absence of the test antagonist. The effectiveness of the test compound was expressed in terms of pA2 values and were calculated according to H. O. Schild [Br. J. Pharmacol, Chemother., 2,189-206 (1947)]. The pA2 value is the concentration of the antagonist which increases the EC50 value for AII by a factor of two. Each test antagonist was evaluated in aorta rings from two rabbits.

For test [1], the target named is angiotensin II AT1 receptor. Briefly: Assay A: Angiotensin II binding activity (125I-AII displacement, rat uterine membrane preparation).

“And” between values parts separate entries of the source, which are not always exact repeats. Equal values may be shown once.

Take `CCCCc1nc(Cl)nn1Cc1ccc(-c2ccccc2C(=O)O)cc1` [compound 6]: in the test with pressor response to AII, 100 mg/kg produced 90% inhibition. Moreover, the Kb in the test with rabbit aortic rings is 282 nM.

With `CCCCn1nc(C(C)(F)F)nc1Cc1ccc(-c2ccccc2-c2nnn[nH]2)nc1` [Compound 166], the half-inhibitory concentration (IC50) in test [1] came to 160 nM. In addition, in the test with rabbit aortic rings, the Kb was 26.9 nM.

In test [1], `CCCCc1nc(CC2CCCCC2)n(Cc2ccc(-c3ccccc3-c3nnn[nH]3)cc2)n1` [Compound 73] came in with an IC50 of 790 nM. For the same molecule, the Kb in the test on rabbit aortic rings was 22.4 nM.

Consider `CCCCc1nc(CN)n(Cc2ccc(-c3ccccc3-c3nnn[nH]3)cc2)n1` [Compound 36], for which the concentration for half-maximal inhibition (IC50) in test [1] was 1400 nM. The Kb in the test on rabbit aortic rings was 1200 nM.

As to `CCCCc1nc(CCCNC(=O)OC(C)(C)C)n(Cc2ccc(-c3ccccc3-c3nnn[nH]3)cc2)n1` [Compound 67], in test [1], the IC50 is 3100 nM. Further, the Kb with rabbit aortic rings was 1320 nM.

Take `CCCCc1nn(Cc2ccc3ccccc3c2)c(=O)n1Cc1ccc(-c2ccccc2-c2nn[nH]n2)cc1` [Compound 99]: the half-inhibitory concentration (IC50) in test [1] was determined as 280 nM. The Kb in the test with rabbit aortic rings is 316 nM.

In test [1], `CCCCc1cn(-c2c(C)cc(C(C)(C)C)cc2C)c(=O)n1Cc1ccc(-c2ccccc2-c2nnn[nH]2)cc1` [Compound 279] displayed a concentration for half-maximal inhibition (IC50) of 270 nM. Besides, in the test with rabbit aortic rings, the “Assay B pA2” value was 8.06 and 8.25.

`CCCCc1nc(Cc2ccc(-c3ccccc3-c3nnn[nH]3)nc2)n(CC(CC)CC)n1` [Compound 157] had an IC50 in test [1] of 530 nM. In addition, the Kb in the test on rabbit aortic rings was 603 nM.

Take `CCCn1nc(C(C)(F)F)nc1Cc1ccc(-c2ccccc2-c2nnn[nH]2)nc1` [Compound 165]: the concentration for half-maximal inhibition (IC50) in test [1] came out at 410 nM. For the same molecule, the Kb with rabbit aortic rings is 126 nM.

Regarding `CCCCc1nc(Cc2ccc(-c3ccccc3C(=O)O)cc2)nn1CCCC` [Compound 127], in test [1], the IC50 came to 12000 nM. In addition, the Kb in the test on rabbit aortic rings was 11000 nM.

In test [1], `CCCCc1nc(Cc2ccc(-c3ccccc3C(=O)O)cc2)n(CCCC)n1` [Compound 126] returned a 50% inhibitory concentration (IC50) of 240 nM. Also, the Kb in the test with rabbit aortic rings is 63.1 nM.

Consider `CCCCc1nc(CCCC2CCCCC2)nn1Cc1ccc(-c2ccccc2-c2nnn[nH]2)cc1` [Compound 58], for which, in test [1], the 50% inhibitory concentration (IC50) worked out at 140 nM. Besides, the Kb with rabbit aortic rings was 355 nM.

Take `CCCCn1nc(C(F)(F)CCC)nc1Cc1ccc(-c2ccccc2-c2nnn[nH]2)cc1` [Compound 130]: in test [1], the half-maximal inhibitory concentration (IC50) was 40 nM. Moreover, the Kb in the test with rabbit aortic rings was 7.94 nM.

As for `CCCCc1nc(Cc2ccc(-c3ccccc3-c3nnn[nH]3)cc2)n(CCCC)n1` [Compound 128], in test [1], the IC50 amounted to 16 nM. Also, the Kb in the test on rabbit aortic rings is 2.34 nM.

In test [1], `CCCCc1nn(C(=O)CCC)c(=O)n1Cc1ccc(-c2ccccc2-c2nn[nH]n2)cc1` [Compound 95] came in with an IC50 of 66 nM. The Kb in the test with rabbit aortic rings is 6.31 nM.

Molecule `CCCCCCn1nc(CCCC)n(Cc2ccc(-c3ccccc3-c3nn[nH]n3)cc2)c1=O` [Compound 85] registered a half-inhibitory concentration (IC50) in test [1] of 8.7 nM. For the same molecule, the Kb in the test on rabbit aortic rings is 1.26 nM.

In test [1], `CCCCc1nc(C(=O)NC)n(Cc2ccc(-c3ccccc3-c3nnn[nH]3)nc2)n1` [Compound 258] returned a half-inhibitory concentration (IC50) of 350 nM. For the same molecule, the Kb in the test on rabbit aortic rings is 145 nM.

Regarding `CCCCc1nc(Cc2ccc(-c3ccccc3-c3nnn[nH]3)nc2)n(CC(C)(C)C)n1` [Compound 184], the IC50 in test [1] was determined as 1100 nM. Besides, the Kb in the test with rabbit aortic rings is 166 nM.

Molecule `CCCc1cn(CCC)c(=O)n1Cc1ccc(-c2ccccc2-c2nnn[nH]2)cc1` [Compound 138] came in with an IC50 in test [1] of 130 nM. In the test with rabbit aortic rings, the Kb was 6.31 nM.

Consider `CCCn1nc(C(F)(F)CC)nc1Cc1ccc(-c2ccccc2-c2nnn[nH]2)nc1` [Compound 167], for which the IC50 in test [1] came to 370 nM. Also, the Kb with rabbit aortic rings was 83.2 nM.

As to `CCCCc1ncnn1Cc1ccc(-c2ccccc2C(=O)O)cc1` [Compound 18], the 50% inhibitory concentration (IC50) in test [1] stood at 970 nM. Moreover, in the test with rabbit aortic rings, the Kb is 724 nM.

Consider `CCCCc1nc(CC)nn1Cc1ccc(-c2ccccc2-c2nnn[nH]2)cc1` [Compound 39], for which, in test [1], the IC50 stood at 10 nM. The Kb in the test on rabbit aortic rings is 13.2 nM.

In test [1], `CCCCc1cn(-c2c(C(C)C)cccc2C(C)C)c(=O)n1Cc1ccc(-c2ccccc2-c2nnn[nH]2)cc1` [Compound 277] had an IC50 of 190 nM. Moreover, the Kb with rabbit aortic rings was 288 nM.

Molecule `CCCCc1ncn(Cc2ccc(-c3ccccc3-c3nnn[nH]3)cc2)n1` [Compound 54] yielded a concentration for half-maximal inhibition (IC50) in test [1] of 3100 nM. Also, the Kb with rabbit aortic rings is 955 nM.

`CCCCc1ncn(Cc2ccc(-c3ccccc3C(=O)O)cc2)n1` [Compound 19] returned a concentration for half-maximal inhibition (IC50) in test [1] of 12000 nM. In addition, in the test on rabbit aortic rings, the Kb is 6610 nM.

With `CCCCc1nn(CC(=O)C23CC4CC(CC(C4)C2)C3)c(=O)n1Cc1ccc(-c2ccccc2-c2nn[nH]n2)cc1` [Compound 80], the half-inhibitory concentration (IC50) in test [1] was found to be 25 nM. The Kb in the test with rabbit aortic rings was 7.94 nM.

Molecule `CCCCc1nc(C(=O)O)nn1Cc1ccc(-c2ccccc2-c2nnn[nH]2)cc1` [Compound 52] gave an IC50 in test [1] of 100 nM. In addition, in the test on rabbit aortic rings, the Kb was 7.24 nM.

As for `CCCCc1nn(CC2CC2)c(=O)n1Cc1ccc(-c2ccccc2-c2nn[nH]n2)cc1` [Compound 104], the concentration for half-maximal inhibition (IC50) in test [1] was found to be 15 nM. In the test with rabbit aortic rings, the Kb was 10 nM.

The molecule `CCCCc1nc(CNC(=O)CCC(NC(C)=O)C(=O)OC(C)(C)C)nn1Cc1ccc(-c2ccccc2-c2nnn[nH]2)cc1` (stereo not drawn) [Compound 41] showed a half-inhibitory concentration (IC50) in test [1] of 3700 nM. In addition, in the test on rabbit aortic rings, the Kb was 2090 nM.

`CCCCc1nn(CCC2CCCCC2)c(=O)n1Cc1ccc(-c2ccccc2-c2nn[nH]n2)cc1` [Compound 89]: the half-maximal inhibitory concentration (IC50) in test [1] was 18 nM. In addition, the Kb in the test on rabbit aortic rings is 12.6 nM.

`CCCCc1nc(CCC(=O)O)nn1Cc1ccc(-c2ccccc2-c2nnn[nH]2)cc1` [Compound 63]: the IC50 in test [1] amounted to 61 nM. Also, the Kb in the test on rabbit aortic rings is 17 nM.

`CCCCc1nn(CC(OCC(=O)OCC)c2ccccc2)c(=O)n1Cc1ccc(-c2ccccc2-c2nn[nH]n2)cc1` (stereo not drawn) [Compound 107] yielded an IC50 in test [1] of 180 nM. Besides, the Kb in the test on rabbit aortic rings is 5.01 nM.

For `CCCCc1ncnn1Cc1ccc(-c2ccccc2-c2nnn[nH]2)cc1` [Compound 53], the half-inhibitory concentration (IC50) in test [1] stood at 65 nM. For the same molecule, in the test with rabbit aortic rings, the Kb is 27.5 nM.

`CCCCn1nc(CCc2ccccc2)nc1Cc1ccc(-c2ccccc2-c2nnn[nH]2)nc1` [Compound 151]: in test [1], the IC50 turned out to be 17 nM. The Kb in the test with rabbit aortic rings was 17.4 nM.

Turning to `CCCCc1nn(C(C)(C)C(=O)c2ccccc2)c(=O)n1Cc1ccc(-c2ccccc2-c2nn[nH]n2)cc1` [Compound 102], the IC50 in test [1] is 43 nM. In addition, the Kb with rabbit aortic rings is 20 nM.

As for `CCCCc1nc(CC2CCCCC2)nn1Cc1ccc(-c2ccccc2-c2nnn[nH]2)cc1` [Compound 74], the IC50 in test [1] was 6.5 nM. In the test with rabbit aortic rings, the Kb was 2.75 nM.

As for `CCCCc1nc2c(OCC)nnc(OCC)c2n1Cc1ccc(-c2ccccc2-c2nnn[nH]2)cc1` [Compound 112], the IC50 in test [1] worked out at 2000 nM. The Kb with rabbit aortic rings is 6310 nM.

`CCCCc1nc(CCCC2CCCCC2)n(Cc2ccc(-c3ccccc3-c3nnn[nH]3)cc2)n1` [Compound 57]: the IC50 in test [1] came to 2300 nM. Besides, in the test on rabbit aortic rings, the Kb is 1000 nM.

On to `CCCCc1nn(CC(=O)c2cc(OC)ccc2OC)c(=O)n1Cc1ccc(-c2ccccc2-c2nn[nH]n2)cc1` [Compound 96], for which the IC50 in test [1] came to 21 nM. The Kb in the test with rabbit aortic rings was 10 nM.

`CCCCn1nc(/C=C/c2cccs2)nc1Cc1ccc(-c2ccccc2-c2nnn[nH]2)nc1` [Compound 154]: the IC50 in test [1] worked out at 97 nM. In the test with rabbit aortic rings, the Kb was 6.46 nM.

The molecule `CCCCc1nc(-c2ccccc2C)n(Cc2ccc(-c3ccccc3-c3nnn[nH]3)nc2)n1` [Compound 262] yielded an IC50 in test [1] of 530 nM. Moreover, in the test with rabbit aortic rings, the Kb is 603 nM.

`CCCCc1nn(CCC(C)CC(C)(C)C)c(=O)n1Cc1ccc(-c2ccccc2-c2nn[nH]n2)cc1` (stereo not drawn) [Compound 92] had a half-inhibitory concentration (IC50) in test [1] of 35 nM. Besides, the Kb in the test with rabbit aortic rings was 12.6 nM.
